Experimental data taken from publication PMC8000724, “Trans-Epithelial Transport, Metabolism, and Biological Activity Assessment of the Multi-Target Lupin Peptide [sequence] (P5) and Its Metabolite [sequence] (P5-Met)” (Nutrients, 2021).

Columns and labels:
[1] = tested on: differentiated Caco-2 cells; experiment: Trans-epithelial transport across differentiated Caco-2 cell monolayer; type: in vitro ADME, human; conditions: for Amount in the BL compartment after 30 min: alone, 500 μM in AP, Caco-2 AP to BL
Experimental: Human intestinal Caco-2 cells, obtained from INSERM (Paris, France), where cultured according to a published protocol. For differentiation, they were seeded on polycarbonate filters, 12 mm diameter, 0.4 µm pore diameter (Transwell, Corning Inc., Lowell, MA, US) at a 3.5 × 10^5 cells/cm^2 density in complete medium supplemented with 10% FBS in both AP and BL compartments for 2 d to allow the formation of a confluent cell monolayer. Starting from day three after seeding, cells were transferred to FBS-free medium in both compartments, supplemented with ITS (final concentration 10 mg/L insulin (I), 5.5 mg/L transferrin (T), 6.7 μg/L sodium selenite (S); GIBCO-Invitrogen, San Giuliano Milanese, Italy) only in the basolateral (BL) compartment, and allowed to differentiate for 18–21 days with regular medium changes three times weekly.
The transepithelial electrical resistance (TEER) of differentiated Caco-2 cells was measured at 37 °C using the voltmeter apparatus Millicell (Millipore Co., Billerica, MA, USA), immediately before and at the end of the transport experiments. In addition, at the end of transport experiments, cells were incubated from the AP side with 1 mM phenol-red in PBS containing Ca^++ (0.9 mM) and Mg^++ (0.5 mM) for 1 h at 37 °C, to monitor the paracellular permeability of the cell monolayer. The BL solutions were then collected and NaOH (70 µL, 0.1 N) was added before reading the absorbance at 560 nm by a microplate reader Synergy H1 from Biotek (Winooski, VT, USA). Phenol-red passage was quantified using a standard phenol-red curve. Only filters showing TEER values and phenol red passages similar to untreated control cells were considered for peptide transport analysis.
Prior to experiments, the cell monolayer integrity and differentiation were checked by TEER measurement as described in detail above. Peptide trans-epithelial passage was assayed in differentiated Caco-2 cells in transport buffer solution (137 mM NaCl, 5.36 mM KCl, 1.26 mM CaCl2, and 1.1 mM MgCl2, 5.5 mM glucose) according to previously described conditions. In order to reproduce the pH conditions existing in vivo in the small intestinal mucosa, the apical (AP) solutions were maintained at pH 6.0 (buffered with 10 mM morpholinoethane sulfonic acid), and the basolateral (BL)solutions were maintained at pH 7.4 (buffered with 10 mM […]). Prior to transport experiments, cells were washed twice with 500 µL PBS containing Ca^++ and Mg^++. Peptide transportation by mature Caco-2 cells was assayed by loading the AP compartment with P5 alone, in mixture with […] (P3) and […] (P7), and/or P5-met (500 μM) in the AP transport solution (500 µL) and the BL compartment with the BL transport solution (700 µL). The plates were incubated at 37 °C and the BL solutions were collected at different time points (i.e., 15, 30, 60, 90, and 120 min) and replaced with fresh solutions pre-warmed at 37 °C. All BL and AP solutions collected at the end of the transport experiment were stored at −80 °C prior to analysis. Three independent transport experiments were performed, each in duplicate. In order to assess the involvement of transcytotic process in peptides passage, parallel transport experiments were performed in the presence of 500 nM wortmannin in both the AP and BL compartment, over 60 min incubation time.
The medium collected at the end of transport experiments from AP and BL chambers (500 µL and 700 µL, respectively) were freeze-dried and residues were solubilized in HPLC water (100 µL). Samples were desalted with C18 resin ZipTip by using 80% ACN, 0.1% FA as eluent (Millipore Corporation, Bedford, MA, USA). Each sample was lyophilized under speed-vacuum for 5 h at 30°C and re-dissolved in 50 μL (0.1% formic acid), before MS analysis. Purified BL samples were analyzed on a SL IT mass spectrometer interfaced with a HPLC- Chip Cube source (Agilent Technologies, Palo Alto, CA, USA). […]

[2] = molecular target: T1, HMGCoAR (catalytic domain) (Homo sapiens, UniProt P04035); experiment: HMGCoAR activity assay; type: biochemical; conditions: 10-500 µM peptide, 37 °C, NADPH absorbance 340 nm at 0 and 10 min
T1 construct: finally the HMGCoAR (catalytic domain) (2 µL); purchased Sigma-Aldrich
T1 sequence (P04035 340-888 limits assumed): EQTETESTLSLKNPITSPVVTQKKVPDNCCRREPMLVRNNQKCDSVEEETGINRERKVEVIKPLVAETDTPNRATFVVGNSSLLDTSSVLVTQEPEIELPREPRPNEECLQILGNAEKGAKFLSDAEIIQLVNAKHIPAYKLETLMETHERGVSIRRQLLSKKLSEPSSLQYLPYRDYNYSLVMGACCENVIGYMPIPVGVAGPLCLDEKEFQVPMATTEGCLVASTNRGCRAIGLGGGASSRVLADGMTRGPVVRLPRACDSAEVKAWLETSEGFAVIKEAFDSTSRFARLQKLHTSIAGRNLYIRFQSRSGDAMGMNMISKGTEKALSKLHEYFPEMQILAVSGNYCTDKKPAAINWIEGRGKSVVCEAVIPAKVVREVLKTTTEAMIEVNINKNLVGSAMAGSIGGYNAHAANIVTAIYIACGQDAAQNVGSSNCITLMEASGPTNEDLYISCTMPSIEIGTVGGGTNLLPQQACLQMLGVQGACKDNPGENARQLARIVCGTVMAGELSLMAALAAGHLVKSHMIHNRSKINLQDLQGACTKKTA
Experimental: The experiments were carried out following the manufacturer instructions and optimized protocol. The assay buffer, NADPH, substrate solution, and HMGCoAR were provided in the HMGCoAR Assay Kit (Sigma Aldrich SRL, Milan, Italy). The experiments were carried out following the manufacturer instructions at 37 °C. In particular, each reaction (200 µL) was prepared adding the reagents in the following order: 1× assay buffer, a 10–500 µM doses of P5 and P5-met or vehicle (C), the NADPH (4 µL), the substrate solution (12 µL), and finally the HMGCoAR (catalytic domain) (2 µL). Subsequently, the samples were mixed and the absorbance at 340 nm read by the microplate reader Synergy H1 (Winooski, VT, USA) at time 0 and 10 min. The HMGCoAR-dependent oxidation of NADPH and the inhibition properties of peptides were measured by absorbance reduction, which is directly proportional to enzyme activity.

For H-LPKHSDAD-OH [Peptide P5-met], the “Effect of the transcytosis inhibitor wortmannin on transport across Caco-2 cells” value ([1]; 500 nM wortmannin in AP and BL compartments, 60 min, HPLC-Chip MS of BL compartment) was “transported also in the presence of wortmannin”, the “Amount in the BL compartment after 30 min” value ([1]; AP pH 6.0 / BL pH 7.4, 37 °C, LC-MS/MS MRM, mean ± SD of three independent experiments) was 0.54 ± 0.02 µg and the “Amount in the BL compartment after 30 min” value ([1]; conversion of the µg value) was 0.613 nmol. For the same substance, the IC50 [2] was 175 µM.
